Columns and labels:
[1] = Rat pharmacokinetics, single IV and PO dose; type: in vivo, male Sprague Dawley rats; conditions: single nominal oral dose 3 mg/kg
Procedure: Compound 1 was also administered to male Sprague Dawley rats at single nominal oral dose (PO) of 3 mg/kg as a solution in 5% NMP, 30% PEG400, 10% TPGS, 5% PVP-K30 at 5 mL/kg dose volume.
The study design, sample tracking, data run design and individual plasma sample concentrations were stored using Watson LIMS software, Version 7.4.2 (Thermo Scientific Inc, Waltham, MA). Plasma concentration-time profiles of Compound 1 in Sprague Dawley rats at scheduled (nominal) sampling times were analyzed by noncompartmental pharmacokinetic methods using PK function within Watson LIMS software, Version 7.4.2 (Thermo Scientific Inc, Waltham, MA). Key pharmacokinetic parameters such as “area under the curve” (AUC), from the time of drug administration, time zero, extrapolated to infinity, clearance (CL), and Percent of oral bioavailability (% F) were determined. The AUC values were calculated using the linear trapezoidal rule.

healthy subjects = assay: Safety and Efficacy Study 1, Part 1 with healthy subjects; type: in vivo, human; conditions: interim data
[2] = target: T1, F508del-CFTR in human bronchial epithelial (HBE) cells (Homo sapiens, UniProt P13569, DEL508-508); assay: Ussing chamber assay; type: cell-based; conditions: chloride current
T1 construct: Non-CF and CF airway epithelia were isolated from bronchial tissue; endogenous in cells; host or cells: primary CF human bronchial epithelial (HBE) cells
Procedure: Ussing chamber experiments were performed on polarized airway epithelial cells expressing F508del to further characterize the F508del modulators identified in the optical assay above. Non-CF and CF airway epithelia were isolated from bronchial tissue, cultured using methods well known in the art, and plated onto Costar® Snapwell™ filters that were precoated with NIH3T3-conditioned media. After four days the apical media was removed and the cells were grown at an air liquid interface for >14 days prior to use. […] CF-HBE cells were isolated from patients homozygous for F508del (F508del/F508del-HBE) or heterozygous for F508del with a different disease causing mutation on the other allele.
HBE cells grown on Costar® Snapwell™ cell culture inserts were mounted in an Ussing chamber (Physiologic Instruments, Inc., San Diego, CA), and the transepithelial resistance and short-circuit current in the presence of a basolateral to apical Cl^− gradient (ISC) were measured using a voltage-clamp system (Department of Bioengineering, University of Iowa, IA). Briefly, HBE cells were examined under voltage-clamp recording conditions (Vhold=0 mV) at 37° C. […]
A basolateral to apical membrane Cl^− concentration gradient was set up as follows. […] Chloride current was measured to assess the increase in functional CFTR in the cell membrane.

[3] = target: T2, F508del CFTR in NIH3T3 cells (Homo sapiens, UniProt P13569, DEL508-508); assay: Membrane potential optical assay (correction assay); type: cell-based
T2 construct: expressed in transfected cells
From the text: An optical assay was employed to measure changes in membrane potential to determine the CFTR modulator properties of compounds. The assay utilized fluorescent voltage sensing dyes to measure changes in membrane potential using a fluorescent plate reader (e.g., FLIPR III, Molecular Devices, Inc.) as a readout for increase in functional F508del in NIH 3T3 cells. The driving force for the response was the creation of a chloride ion gradient in conjunction with channel activation and concurrent with compound treatment by a single liquid addition step after the cells had previously been loaded with a voltage sensing dye.
NIH3T3 mouse fibroblasts stably expressing F508del were used for optical measurements of membrane potential. The cells were maintained at 37° C. in 5% CO2 and 90% humidity in Dulbecco's modified Eagle's medium supplemented with 2 mM glutamine, 10% fetal bovine serum, 1×NEAA, P-ME, 1× pen/strep, and 25 mM HEPES in 175 cm^2 culture flasks. For all optical assays, the cells were seeded at 12,000 cells/well in 384-well matrigel-coated plates. […] The cells were then activated and treated with Compound I. After 18-24 hours, fluorescence from the voltage sensing dye in the cells was measured to assess changes in the membrane potential as a read out for increase in functional F508del CFTR in the NIH3T3 cells.

T1 sequence (P13569 with tags, fused parts or gaps DEL508-508): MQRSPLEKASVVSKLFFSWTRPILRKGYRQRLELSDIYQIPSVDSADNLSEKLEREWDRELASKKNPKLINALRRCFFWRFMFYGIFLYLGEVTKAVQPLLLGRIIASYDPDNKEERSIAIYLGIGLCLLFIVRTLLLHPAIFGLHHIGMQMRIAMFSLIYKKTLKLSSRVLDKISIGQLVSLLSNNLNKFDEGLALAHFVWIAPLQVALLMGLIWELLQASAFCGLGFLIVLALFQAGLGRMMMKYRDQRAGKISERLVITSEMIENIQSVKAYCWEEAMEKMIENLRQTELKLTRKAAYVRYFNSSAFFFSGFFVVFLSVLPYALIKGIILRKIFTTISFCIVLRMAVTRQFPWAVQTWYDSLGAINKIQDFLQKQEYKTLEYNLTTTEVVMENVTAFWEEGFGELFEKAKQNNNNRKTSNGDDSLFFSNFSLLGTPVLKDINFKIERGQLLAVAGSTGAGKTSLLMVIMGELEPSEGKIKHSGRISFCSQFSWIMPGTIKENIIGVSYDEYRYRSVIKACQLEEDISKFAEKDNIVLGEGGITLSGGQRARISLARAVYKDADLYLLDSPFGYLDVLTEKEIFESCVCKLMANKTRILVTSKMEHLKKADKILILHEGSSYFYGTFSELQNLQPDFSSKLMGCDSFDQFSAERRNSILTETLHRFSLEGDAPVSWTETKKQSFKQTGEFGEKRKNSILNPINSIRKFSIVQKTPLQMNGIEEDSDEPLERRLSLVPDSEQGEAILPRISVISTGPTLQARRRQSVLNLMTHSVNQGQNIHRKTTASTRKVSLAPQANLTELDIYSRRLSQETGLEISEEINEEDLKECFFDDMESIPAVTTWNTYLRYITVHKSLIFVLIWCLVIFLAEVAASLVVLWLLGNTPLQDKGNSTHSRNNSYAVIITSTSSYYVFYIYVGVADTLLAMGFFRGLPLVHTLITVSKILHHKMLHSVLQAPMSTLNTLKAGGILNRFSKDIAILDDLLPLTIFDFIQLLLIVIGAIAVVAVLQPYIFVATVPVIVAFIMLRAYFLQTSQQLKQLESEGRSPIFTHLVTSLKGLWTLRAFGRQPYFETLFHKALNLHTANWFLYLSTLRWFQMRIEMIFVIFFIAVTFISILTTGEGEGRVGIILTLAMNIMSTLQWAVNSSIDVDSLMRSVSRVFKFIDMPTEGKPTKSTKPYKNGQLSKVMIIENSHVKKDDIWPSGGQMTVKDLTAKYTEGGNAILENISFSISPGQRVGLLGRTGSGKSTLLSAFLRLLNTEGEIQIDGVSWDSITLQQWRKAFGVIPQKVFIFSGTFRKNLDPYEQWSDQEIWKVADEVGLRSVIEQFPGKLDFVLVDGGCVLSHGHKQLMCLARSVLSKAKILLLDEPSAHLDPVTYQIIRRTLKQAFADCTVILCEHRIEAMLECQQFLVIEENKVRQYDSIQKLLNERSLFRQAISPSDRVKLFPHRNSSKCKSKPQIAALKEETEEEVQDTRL
T2 sequence (P13569 with tags, fused parts or gaps DEL508-508): as above

- Rat PO AUC/dose [1]: 9.4 ± 0.7 µg·h/mL/mg/kg
- EC50 [2]: < 2 µM
- HBE Max Eff [2]: +++ (means >100%)
- Emax ([3]; NIH3T3, relative to Compound II, read-out: % Efficacy): ≥ 100%
- EC50 ([3]; NIH3T3 cells expressing F508del, 18-24 hours treatment): < 3 µM
Structure (SMILES): Cc1nn(C)cc1S(=O)(=O)NC(=O)c1ccc(-n2ccc(OCC(C)(C)C(F)(F)F)n2)nc1N1C[C@@H](C)CC1(C)C [Compound I, N-(1,3-dimethylpyrazol-4-yl)sulfonyl-6-[3-(3,3,3-trifluoro-2,2-dimethyl-propoxy)pyrazol-1-yl]-2-[(4S)-2,2,4-trimethylpyrrolidin-1-yl]pyridine-3-carboxamide]
- safety and tolerability (healthy subjects; multiple doses up to 340 mg for 10 days): safe and well tolerated
- safety and tolerability (healthy subjects; single doses up to 360 mg): safe and well tolerated

— US12350262B2, “Methods of treatment for cystic fibrosis” (Vertex Pharmaceuticals Incorporated, priority 2017, dated 2025)
